Assay [1] deals with T1, E. coli RecQ helicase (Escherichia coli, UniProt P15043). The experiment in a line: quenched-flow ATP hydrolysis, global fit. The assay is classed as biochemical. The following applies: SF50 buffer pH 7.5, 5 mM MgCl2, 50 mM NaCl, 25 °C; gamma-32P-ATP; read-out: DNA-free RecQ. The text has this:
quenched-flow ATP hydrolysis, global fit on E. coli RecQ helicase

Assay [2] concerns the target T1, E. coli RecQ helicase. The experiment in a line: stopped-flow FRET binding kinetics. The following applies: association rate constant, Kd not given, SF50 buffer pH 7.5, 5 mM MgCl2, 25 °C, labelled compound. The text has this: stopped-flow FRET binding kinetics on E. coli RecQ helicase
The target of assay [3] is T1, E. coli RecQ helicase. The experiment in a line: stopped-flow FRET binding kinetics (k-1/k1). The following applies: read-out: DNA-free RecQ. The text has this: stopped-flow FRET binding kinetics (k-1/k1) on E. coli RecQ helicase

T1 sequence (P15043 2-609): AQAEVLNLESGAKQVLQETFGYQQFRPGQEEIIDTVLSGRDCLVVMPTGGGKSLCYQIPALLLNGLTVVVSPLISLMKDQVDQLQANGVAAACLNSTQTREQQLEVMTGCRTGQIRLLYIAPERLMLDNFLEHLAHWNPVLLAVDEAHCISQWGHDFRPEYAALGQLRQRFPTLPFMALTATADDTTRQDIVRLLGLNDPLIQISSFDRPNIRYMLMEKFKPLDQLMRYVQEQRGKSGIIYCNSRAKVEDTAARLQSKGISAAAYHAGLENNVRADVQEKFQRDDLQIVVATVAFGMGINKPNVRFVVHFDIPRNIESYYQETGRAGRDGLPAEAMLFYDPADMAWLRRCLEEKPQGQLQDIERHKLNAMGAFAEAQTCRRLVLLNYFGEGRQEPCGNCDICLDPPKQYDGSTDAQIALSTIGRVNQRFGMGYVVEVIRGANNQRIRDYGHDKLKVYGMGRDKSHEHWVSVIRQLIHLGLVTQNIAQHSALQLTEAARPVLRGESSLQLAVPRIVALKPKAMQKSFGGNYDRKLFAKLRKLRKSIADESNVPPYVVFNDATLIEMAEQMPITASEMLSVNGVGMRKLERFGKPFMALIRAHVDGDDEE

`Nc1ncnc2c1ncn2[C@@H]1O[C@H](COP(=O)(O)OP(=O)(O)OP(=O)(O)O)[C@@H](O)[C@H]1O` [ATP]: at E. coli RecQ helicase [1], the Kd worked out at 120 ± 30 µM. As for `CNc1ccccc1C(=O)O[C@H]1C[C@H](n2cnc3c(N)ncnc32)O[C@@H]1COP(=O)(O)OP(=O)(O)O` [mdADP], the “DNA-free RecQ” value on E. coli RecQ helicase [2] stood at 4.5 ± 0.5 µM⁻¹ s⁻¹. As for `CNc1ccccc1C(=O)O[C@H]1C[C@H](n2cnc3c(N)ncnc32)O[C@@H]1COP(=O)(O)OP(=O)(O)OP(=O)(O)O` [mdATP, 3′-(N-methylanthraniloyl)-2′-deoxy-ATP], the Kd on E. coli RecQ helicase [3] stood at 15 ± 2 µM.

These data come from PMC4333385 (Nucleic Acids Research, 2014).
